As a reminder, the IC50 is the concentration that inhibits the measured activity by half.

The subject of assay [1] is CK2 in CCRF-CEM cells (Ser529 in NF-κB p65). Put plainly: Western blot of phosphorylated p65 (Ser529), intracellular CK2 inhibition, CCRF-CEM. The class given is cell-based, human. The following applies: 16 µM, 24 h, untreated cells = 1. The procedure: (§1) After 24 h of treatment, we assessed site-specific phosphorylation of Ser529 in NF-κB p65 and Ser112 in BAD—a marker of PIM kinase activity—using Western blot analysis (Figure 8). The data for BAD confirmed intracellular inhibition of this kinase by the tested compounds in both cell lines in a dose-dependent manner. A statistically significant decrease in phosphorylated BAD was observed following treatment with 16 µM of compound 1, with relative protein levels reduced to 0.48 and 0.46 in CCRF-CEM and MCF-7 cells, respectively (Figure 8a–c).
(§2) Exponentially growing CCRF-CEM or MCF-7 cells were seeded at a density of 6 × 10^5 cells per 6 cm dish. Compounds were then added, with a final DMSO concentration of 0.5%. Cell lysates were prepared as previously described. The ECL substrate was used for signal detection, and the immunoblots were scanned using a G:BOX Chemi imaging system (Syngene, Cambridge, UK) equipped with GeneSys software, Version 1.4.3.0 (Syngene, Cambridge, UK).
(§3) For densitometric analysis, immunoblots were scanned using the G:BOX Chemi system (Syngene), and the band intensities of phosphorylated and total proteins were quantified with GeneSys software (Syngene, Cambridge, UK). The levels of phosphorylated proteins were normalized to GAPDH, with the value for untreated cells set to 1, and subsequently expressed as a percentage relative to the appropriate control.
(In general: Immunoblotting shows a protein as a band on a membrane.)

A further assay concerns MCF-7 cells. As to the kind of experiment: mitochondrial membrane potential (ΔΨm) JC-1 assay, MCF-7. The class given is cell-based, human. As to conditions: 48 h. As for the experimental part: (§4) The mitochondrial membrane potential was evaluated by flow cytometry using 5,5′,6,6′-tetrachloro-1,1′,3,3′-tetraethylbenzimidazolocarbocyanine iodide (JC-1; Sigma-Aldrich), as previously described.

Assay [2] has as its system CCRF-CEM cells. As to the kind of experiment: annexin V/propidium iodide apoptosis, flow cytometry, CCRF-CEM. The class given is cell-based, human. The following applies: 48 h, annexin V binding. As for the experimental part: The results obtained for CCRF-CEM and MCF-7 are shown in Figure 3 and Figure 4, respectively. […] 1, 79.6% of cells were apoptotic.
CCRF-CEM cells were seeded in 24-well plates at a density of 2 × 10^5 cells/mL. The cells were treated with the tested compounds at concentrations of 8, 16, and 32 µM, followed by incubation for 48 h. After treatment, the cells were harvested and processed according to the previously described protocol. Flow cytometric measurements were conducted within 1 h of cell labeling. Viable, necrotic, early apoptotic, and late apoptotic cells were identified using a BD Accuri C6 Plus flow cytometer and analyzed with BD Accuri C6 Plus software, version 1.0.34.1 (BD Biosciences, San Jose, CA, USA).
For orientation: A flow cytometer gives signals particle by particle.

Assay [3] deals with T1, recombinant human CK2 catalytic subunit (rhCK2α) (Homo sapiens, UniProt P68400).
T1 construct: made in house
T1 sequence (P68400 whole entry): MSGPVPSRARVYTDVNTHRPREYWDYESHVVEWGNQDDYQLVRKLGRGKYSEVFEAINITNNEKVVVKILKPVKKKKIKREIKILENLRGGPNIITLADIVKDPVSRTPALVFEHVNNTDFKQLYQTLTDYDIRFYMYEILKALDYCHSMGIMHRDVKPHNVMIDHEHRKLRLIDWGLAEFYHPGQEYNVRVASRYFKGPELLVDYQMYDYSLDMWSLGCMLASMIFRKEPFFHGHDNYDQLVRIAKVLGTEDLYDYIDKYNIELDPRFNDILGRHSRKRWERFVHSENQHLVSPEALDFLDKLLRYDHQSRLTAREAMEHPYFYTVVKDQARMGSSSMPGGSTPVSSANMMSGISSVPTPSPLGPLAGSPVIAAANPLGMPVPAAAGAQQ
As to the kind of experiment: radiometric P81 filter isotopic kinase assay, CK2α. The class given is biochemical. As for the experimental part: Synthetic peptide […] served as the substrate for CK2, while peptide […] was used as the substrate for PIM-1.
The synthesized compounds were evaluated for their inhibitory activity against human CK2α, the human CK2 holoenzyme, and PIM-1 using the P81 filter-based isotopic assay, as previously described. […] The experimental data were fitted to a dose–response curve using non-linear regression analysis (variable slope) Y = Bottom + (Top − Bottom)/(1 + 10^((LogIC50 − X) × HillSlope) equation in GraphPad Prism (Prism 9, version 9.0.1).

Assay [4] has as its system CCRF-CEM cells. Put plainly: mitochondrial membrane potential (ΔΨm) JC-1 assay, CCRF-CEM. The class given is cell-based, human. The following applies: 48 h. The procedure: as §4
Assay [5] relates to MDA-MB-231 (breast carcinoma). As to the kind of experiment: MTT-based viability assay, MDA-MB-231. The class given is cell-based, human. The procedure: 3. The cytotoxicity of the newly obtained inhibitors, i.e., 1, 2, and 4 was tested towards four cell lines, i.e., CCRF-CEM (acute lymphoblastic leukemia ALL), MCF-7 (breast carcinoma), MDA-MB-231 (triple negative breast carcinoma), and Vero (Cercopithecus aethiops kidney).
The CCRF-CEM (acute lymphoblastic leukemia, ALL) and MDA-MB-231 (triple-negative breast adenocarcinoma) cell lines were obtained from the European Collection of Authenticated Cell Cultures (ECACC), while the MCF-7 (hormone-dependent breast adenocarcinoma) and Vero (Cercopithecus aethiops kidney) cell lines were purchased from the American Type Culture Collection (ATCC, Manassas, VA, USA). CCRF-CEM cells were maintained in RPMI-1640 medium, whereas MCF-7 and MDA-MB-231 cells were cultured in DMEM (Sigma-Aldrich Chemical Company, St. Louis, MO, USA). Vero cells were cultured in minimum essential medium eagle (MEM; Sigma-Aldrich). All media were supplemented with 10% fetal bovine serum (FBS), 2 mM L-glutamine, and antibiotics (100 U/mL penicillin and 100 µg/mL streptomycin) (Sigma-Aldrich). Cells were grown in 75-cm^2 culture flasks (Googlab Scientific, Rakocin, Poland) in a humidified atmosphere containing 5% CO2 at 37 °C. All experiments were performed using exponentially growing cultures. Stock solutions of the test compounds were prepared in DMSO and stored at –80 °C for up to one month.
Following incubation with the tested compounds, the MTT assay was carried out as previously described. Optical density was measured at 570 nm using a BioTek microplate reader (Winooski, VT, USA). All measurements were performed in at least three independent biological replicates.
On the technique in general: Formazan colour is commonly taken as a measure of viable cells.

The subject of assay [6] is PIM-1 kinase in CCRF-CEM cells (Ser112 in BAD). Put plainly: Western blot of phosphorylated BAD (Ser112), marker of PIM kinase activity, CCRF-CEM. The class given is cell-based, human. The following applies: 16 µM, 24 h, untreated cells = 1. As for the experimental part:
as §1, §2, §3

Assay [7] concerns caspase-3 in CCRF-CEM cells. Put plainly: caspase-3 activation, flow cytometry, CCRF-CEM. The following applies: 16 µM, 24 h. The class given is cell-based, human. The procedure:
Since caspase-3 is a key protease activated in the early stages of apoptosis, we next investigated whether apoptosis in CCRF-CEM cells is mediated through caspase-3 activation. Both cpd. […] 1. The results are consistent with the previously observed pro-apoptotic properties of derivative 1.
Caspase-3 activity was measured using the FITC Active Caspase-3 Apoptosis Kit (BD Pharmingen, San Jose, CA, USA) according to the manufacturer’s instructions. The stained cells were measured with a BD Accuri C6 Plus flow cytometer.

Assay [8] has as its system PIM-1 kinase in MCF-7 cells (Ser112 in BAD). Put plainly: Western blot of phosphorylated BAD (Ser112), marker of PIM kinase activity, MCF-7. The class given is cell-based, human. As to conditions: 16 µM, 24 h, untreated cells = 1. The procedure:
as §1, §2, §3

`CC(=O)Cn1cnc2c(Br)c(Br)c(Br)c(Br)c21` [compound 1, 1-(4,5,6,7-tetrabromo-1H-benzimidazol-1-yl)propan-2-one]: the “relative level of phosphorylated p65 (Ser529), CCRF-CEM” value in assay [1] was 0.46. Further, the “MCF-7 cells with reduced ΔΨm” value is given as 26% in the assay on MCF-7 cells (16 µM) and 19% with MCF-7 cells (32 µM). In addition, the figures for the “apoptotic CCRF-CEM cells” value in the assay with CCRF-CEM cells [2] (8 µM), in the assay with CCRF-CEM cells [2] (16 µM) and in the assay with CCRF-CEM cells [2] (32 µM) were 23.5%, 79.6% and roughly 98%, respectively. For the same compound, the 50% inhibitory concentration (IC50) in assay [3] came out at 6.65 ± 0.74 µM; in assay [5] (Homo sapiens, MDA-MB-231, MTT, 48 h, read-out: IC50 [µM] MDA-MB-231), 21.2 ± 0.76 µM. Moreover, the remaining activity at 2 µM in assay [3] (cpd. concentration 2 μM, read-out: CK2α Residual Activity [%]) is 58.5 ± 2.2%. Moreover, in assay [3] (cpd. concentration 5 μM, read-out: CK2α Residual Activity [%]), the remaining activity at 5 µM worked out at 32.3 ± 0.3%. Further, the remaining activity at 20 µM in assay [3] (cpd. concentration 20 μM, read-out: CK2α Residual Activity [%]) amounted to 10.2 ± 0.6%. For the same compound, the figures for the “CCRF-CEM cells with reduced ΔΨm” value in the assay with CCRF-CEM cells [4] (16 µM) and with CCRF-CEM cells [4] (32 µM) were 76% and 99.4%, respectively. The “SI (selectivity index) MDA-MB-231” value in [5] (IC50 for Vero/IC50 for cancer cells) stood at 0.95. For the same compound, the “relative level of phosphorylated BAD (Ser112), CCRF-CEM” value in assay [6] stood at 0.48. In [7], the “CCRF-CEM cells with the active caspase-3” value was found to be 60%. Further, the “relative level of phosphorylated BAD (Ser112), MCF-7” value in assay [8] was determined as 0.46.

These data come from paper PMC12193579, “Pro-Apoptotic Activity of 1-(4,5,6,7-Tetrabromo-1H-benzimidazol-1-yl)propan-2-one, an Intracellular Inhibitor of PIM-1 Kinase in Acute Lymphoblastic Leukemia and Breast Cancer Cells” (International Journal of Molecular Sciences, 2025).
